Like-named read-outs stand apart in the source and are kept apart here.

The source of these data is patent publication US20100075965A1, “PI3 KINASE INHIBITORS AND METHODS OF THEIR USE” (Novartis AG, priority 2006, published 2010).

The target in experiment [1] is PI3 K Alpha (Homo sapiens, UniProt P42336). Description: PI3 kinase phosphorylation assays (homogenous solution phase, one step solid phase, ATP depletion/KinaseGlo). In kind it is biochemical. For orientation: Kinase-Glo measures the ATP left after a reaction by luminescence.
Experiment [2] concerns pSer473-Akt in A2780 cells. Description: pSer473 Akt assay to monitor PI3K pathway in A2780 cells (MSD). In kind it is cell-based. The following applies: Homo sapiens. On the procedure: In this method, an assay for measuring the PI3K-mediated pSer^473-Akt status after treatment with representative inhibitor compounds of the preferred embodiments is described.
A2780 cells were cultured in DMEM supplemented with 10% FBS, L-glutamine, sodium pyruvate, and antibiotics. Cells were plated in the same medium at a density of 15,000 cells per well into 96 well tissue culture plates, with outside wells vacant, and allowed to adhere overnight.
Test compounds supplied in DMSO were diluted further into DMSO at 500 times the desired final concentrations before dilution into culture media to 2 times the final concentrations. Equal volumes of 2× compounds in media were added to the cells in 96 well plates and incubated at 37° C. for one hour. The media and compounds were then removed, the plates chilled and cells lysed in a lysis buffer (150 mM NaCl, 20 mM Tris pH 7.5, 1 mM EDTA, 1 mM EGTA, 1% Triton X-100) supplemented with phosphatase and protease inhibitors. After thorough mixing, lysates were transferred to both pSer473Akt and total Akt assay plates from Meso Scale Discovery (MSD), and incubated overnight with shaking at 4° C. The plates were washed with 1×MSD wash buffer and the captured analytes detected with secondary antibodies. After incubation with the secondary antibody at room temperature for 1-2 hours, the plates were washed again and 1.5× concentration of Read Buffer T (MSD) was added to the wells.
The assays were read on a SECTOR Imager 6000 instrument (Meso Scale Discovery). Ratios of the signal from pSer473Akt and total Akt assays were used to correct for any variability and the percent inhibition of pSer473Akt from the total signal seen in cells treated with compound versus DMSO alone was calculated and used to determine EC50 values for each compound as shown in Tables 1 and 2 in the column labeled “A2780 pAKT473 EC50”.

Experiment [3] relates to A2780 cells. Description: Viability assay in A2780 (Cell Titer Glo). In kind it is cell-based, human. Conditions: Homo sapiens. The procedure, abridged:
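EC50 values come from Cell Titer Glo luminescence after 72 hrs of compound exposure at 37° C, run in duplicate. A2780 cells were plated at 1,000 per well in DMEM with 10% FBS and dosed with 3-fold serial dilutions.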
On the technique in general: In ATP-based viability assays light output follows the ATP content of the culture.

[4] abbreviates: A2780 cells, read-out: A2780 pAKT 473 EC50.
Setting [5] is: A2780 cells, read-out: A2780 Cell prolif. EC50.

Sequence of PI3 K Alpha (P42336 whole entry): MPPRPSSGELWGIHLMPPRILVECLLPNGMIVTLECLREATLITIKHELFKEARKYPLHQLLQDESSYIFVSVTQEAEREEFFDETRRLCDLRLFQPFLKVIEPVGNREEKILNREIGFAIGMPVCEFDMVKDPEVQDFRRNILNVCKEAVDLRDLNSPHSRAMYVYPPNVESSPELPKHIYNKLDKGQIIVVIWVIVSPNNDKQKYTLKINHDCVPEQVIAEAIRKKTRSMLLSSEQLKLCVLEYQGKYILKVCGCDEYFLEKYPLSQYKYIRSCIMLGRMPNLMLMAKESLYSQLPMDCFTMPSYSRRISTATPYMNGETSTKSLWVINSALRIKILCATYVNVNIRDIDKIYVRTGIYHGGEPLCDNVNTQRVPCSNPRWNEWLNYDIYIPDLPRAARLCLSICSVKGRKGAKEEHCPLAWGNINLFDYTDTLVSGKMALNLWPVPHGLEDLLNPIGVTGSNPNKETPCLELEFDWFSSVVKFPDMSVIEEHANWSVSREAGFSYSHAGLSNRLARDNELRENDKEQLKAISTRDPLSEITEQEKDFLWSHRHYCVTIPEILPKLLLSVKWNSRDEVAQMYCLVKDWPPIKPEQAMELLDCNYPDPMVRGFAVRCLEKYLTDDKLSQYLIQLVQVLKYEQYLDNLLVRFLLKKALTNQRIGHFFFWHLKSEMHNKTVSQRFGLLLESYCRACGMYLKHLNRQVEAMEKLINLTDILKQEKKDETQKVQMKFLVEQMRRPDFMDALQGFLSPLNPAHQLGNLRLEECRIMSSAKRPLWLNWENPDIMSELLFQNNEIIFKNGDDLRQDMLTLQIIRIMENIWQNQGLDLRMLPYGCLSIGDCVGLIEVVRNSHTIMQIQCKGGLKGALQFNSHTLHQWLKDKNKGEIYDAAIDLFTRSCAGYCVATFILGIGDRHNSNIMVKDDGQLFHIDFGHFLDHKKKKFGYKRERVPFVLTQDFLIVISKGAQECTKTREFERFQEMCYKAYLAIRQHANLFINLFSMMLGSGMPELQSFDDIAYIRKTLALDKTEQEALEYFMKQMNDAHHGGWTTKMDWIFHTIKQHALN
Sequence of PI3 K Alpha (P27986 whole entry partner): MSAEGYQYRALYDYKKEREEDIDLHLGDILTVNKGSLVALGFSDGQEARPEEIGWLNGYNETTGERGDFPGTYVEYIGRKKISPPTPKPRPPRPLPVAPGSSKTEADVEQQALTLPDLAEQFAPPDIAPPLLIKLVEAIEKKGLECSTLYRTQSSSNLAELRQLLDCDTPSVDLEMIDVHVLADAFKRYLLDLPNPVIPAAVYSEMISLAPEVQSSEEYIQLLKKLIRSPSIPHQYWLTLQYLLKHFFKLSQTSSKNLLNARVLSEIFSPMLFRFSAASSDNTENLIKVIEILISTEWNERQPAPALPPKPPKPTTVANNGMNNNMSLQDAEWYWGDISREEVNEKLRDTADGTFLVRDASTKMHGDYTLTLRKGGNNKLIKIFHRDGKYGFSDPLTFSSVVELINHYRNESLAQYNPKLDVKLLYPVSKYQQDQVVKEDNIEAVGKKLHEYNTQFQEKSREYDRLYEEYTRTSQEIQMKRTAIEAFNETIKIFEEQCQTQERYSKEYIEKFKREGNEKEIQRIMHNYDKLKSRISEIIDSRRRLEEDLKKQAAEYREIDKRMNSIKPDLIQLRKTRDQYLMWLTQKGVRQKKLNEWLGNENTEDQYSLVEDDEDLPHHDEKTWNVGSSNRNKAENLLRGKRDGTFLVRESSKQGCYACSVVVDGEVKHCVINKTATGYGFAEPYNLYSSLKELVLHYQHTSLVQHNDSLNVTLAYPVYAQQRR

The IC50 is the concentration that gives 50% inhibition. One may read the EC50 as the concentration that produces a half-maximal response. `CC(=O)Nc1cn2nc(-c3cnc(N)c(Cl)c3)ccc2n1` [Example 87, N-(6-(6-amino-5-chloropyridin-3-yl)imidazo[1,2-b]pyridazin-2-yl)acetamide]: the IC50 in experiment [1] (read-out: PI3K Alpha IC50) was < 1 µM. The EC50 in experiment [2] (setting [4]) and in experiment [3] (setting [5]) was < 1 µM throughout.
As for `CC(=O)Nc1cn2cc(-c3cnc(N)c(-c4ccccc4)n3)ccc2n1` [Example 113, N-(6-(5-amino-6-phenylpyrazin-2-yl)imidazo[1,2-a]pyridin-2-yl)acetamide], the half-inhibitory concentration (IC50) in experiment [1] (read-out: PI3K Alpha IC50) is < 1 µM. The EC50 in experiment [2] (setting [4]) was < 1 µM; in experiment [3] (setting [5]) it was < 10 µM.
Regarding `CNC(=O)Nc1nc2ccc(-c3ccc(N)nc3)cc2s1` [Example 2-23, 1-[6-(6-Amino-pyridin-3-yl)-benzothiazol-2-yl]-3-methyl-urea], the IC50 in experiment [1] (ATP depletion assay, read-out: PI3 K Alpha IC50) is < 1 µM. Also, the EC50 was < 1 µM in experiment [2] (1 h, A2780 cells, one hour incubation, read-out: A2780 pAKT473 EC50) and < 10 µM in experiment [3] (A2780 cells, 72 hrs, read-out: A2780 Cell prolif. EC50).
With `Nc1ncc(-c2ccc3nc(NC(=O)CCCN4CCCCC4)cn3c2)cc1C(F)(F)F` [Example 25, N-[6-(6-Amino-5-trifluoromethyl-pyridin-3-yl)-imidazo[1,2-a]pyridin-2-yl]-4-piperidin-1-yl-butyramide], the IC50 in experiment [1] (read-out: PI3K Alpha IC50) is < 1 µM. In addition, the concentration giving a half-maximal response (EC50) was < 1 µM in experiment [2] (setting [4]) and < 10 µM in experiment [3] (setting [5]).
For `CC(C)(C)OC(=O)N1CC[C@H](OCC(=O)Nc2cn3nc(-c4cnc(N)c(C(F)(F)F)c4)ccc3n2)C1` [Example 98, (S)-tert-butyl 3-(2-(6-(6-amino-5-(trifluoromethyl)pyridin-3-yl)imidazo[1,2-b]pyridazin-2-ylamino)-2-oxoethoxy) pyrrolidine-1-carboxylate], the half-maximal inhibitory concentration (IC50) in experiment [1] (read-out: PI3K Alpha IC50) is < 1 µM. In addition, the 50% effective concentration (EC50) in experiment [2] (setting [4]) and in experiment [3] (setting [5]) was < 1 µM each time.
In the case of `CCN1CCCCC1CCC(=O)Nc1cn2nc(-c3cnc(N)c(C(F)(F)F)c3)ccc2n1` (stereo not drawn) [Example 104, N-(6-(6-amino-5-(trifluoromethyl)pyridin-3-yl)imidazo[1,2-b]pyridazin-2-yl)-3-(1-ethylpiperidin-2-yl)propanamide], the half-inhibitory concentration (IC50) in experiment [1] (read-out: PI3K Alpha IC50) was < 1 µM. Further, the concentration giving a half-maximal response (EC50) in experiment [2] (setting [4]) and in experiment [3] (setting [5]) was < 1 µM each time.
Turning to `CC(=O)Nc1cn2nc(-c3cnc(N)c(-c4ccccc4F)c3)ccc2n1` [Example 81, N-(6-(6-amino-5-(2-fluorophenyl)pyridin-3-yl)imidazo[1,2-b]pyridazin-2-yl)acetamide], the half-inhibitory concentration (IC50) in experiment [1] (read-out: PI3K Alpha IC50) was < 1 µM. The EC50 in experiment [2] (setting [4]) and in experiment [3] (setting [5]) was < 1 µM each time.
Turning to `Cc1cc(C(=O)Nc2cn3cc(-c4cnc(N)c(C(F)(F)F)c4)ccc3n2)no1` [Example 94, N-(6-(6-amino-5-(trifluoromethyl)pyridin-3-yl)imidazo[1,2-a]pyridin-2-yl)-5-methylisoxazole-3-carboxamide], in experiment [1] (read-out: PI3K Alpha IC50), the IC50 was < 1 µM. The EC50 in experiment [2] (setting [4]) and in experiment [3] (setting [5]) was < 1 µM each time.
In the case of `CC(=O)Nc1cn2cc(-c3cnc(N)c(-c4ccc(C(F)(F)F)cc4)c3)ccc2n1` [Example 93, N-(6-(6-amino-5-(4-(trifluoromethyl)phenyl)pyridin-3-yl)imidazo[1,2-a]pyridin-2-yl)acetamide], in experiment [1] (read-out: PI3K Alpha IC50), the IC50 is < 1 µM. Besides, the half-maximal effective concentration (EC50) in experiment [2] (setting [4]) and in experiment [3] (setting [5]) was < 1 µM each time.
On to `COc1cc(-c2ccc3nc(NC(C)=O)c(Br)n3c2)cnc1N` [Example 8, N-[6-(6-Amino-5-methoxy-pyridin-3-yl)-3-bromo-imidazo[1,2-a]pyridin-2-yl]-acetamide], for which the half-inhibitory concentration (IC50) in experiment [1] (read-out: PI3K Alpha IC50) is < 1 µM. The EC50 in experiment [2] (setting [4]) is < 1 µM; in experiment [3] (setting [5]) it was < 10 µM.
Turning to `CC(=O)Nc1nc2ccc(-c3cnc(N)c(C(F)(F)F)c3)cn2c1Br` [Example 11, N-[6-(6-Amino-5-trifluoromethyl-pyridin-3-yl)-3-bromo-imidazo[1,2-a]pyridin-2-yl]-acetamide], the IC50 in experiment [1] (read-out: PI3K Alpha IC50) was < 1 µM. The half-maximal effective concentration (EC50) in experiment [2] (A2780, read-out: A2780 pAKT 473 EC50) is < 10 µM; in experiment [3] (A2780, read-out: A2780 Cell prolif. EC50) it was < 25 µM.
As to `CC(=O)Nc1cn2nc(-c3cnc(N)c(OC(F)F)c3)ccc2n1` [Example 72, N-(6-(6-amino-5-(difluoromethoxy)pyridin-3-yl)imidazo[1,2-b]pyridazin-2-yl)acetamide], in experiment [1] (read-out: PI3K Alpha IC50), the half-inhibitory concentration (IC50) was < 1 µM. For the same molecule, the concentration for a half-maximal effect (EC50) in experiment [2] (setting [4]) and in experiment [3] (setting [5]) was < 1 µM each time.
Take `CC(=O)Nc1cn2cc(-c3cnc(N)c(Oc4cccnc4)n3)ccc2n1` [Example 91, N-(6-(5-amino-6-(pyridin-3-yloxy)pyrazin-2-yl)imidazo[1,2-a]pyridin-2-yl)acetamide]: the IC50 in experiment [1] (read-out: PI3K Alpha IC50) is < 1 µM. In addition, the EC50 in experiment [2] (setting [4]) and in experiment [3] (setting [5]) was < 1 µM each time.
Regarding `CC(=O)Nc1cn2c(C)c(-c3cnc(N)c(C(F)(F)F)c3)ccc2n1` [Example 194, N-(6-(6-amino-5-(trifluoromethyl)pyridin-3-yl)-5-methylimidazo[1,2-a]pyridin-2-yl)acetamide], the half-inhibitory concentration (IC50) in experiment [1] (read-out: PI3K Alpha IC50) is < 1 µM. Besides, the EC50 in experiment [2] (setting [4]) and in experiment [3] (setting [5]) was < 10 µM throughout.
In the case of `Nc1ncc(-c2ccc3nc(NC(=O)C4CNC4)cn3n2)cc1C(F)(F)F` [Example 116, N-(6-(6-amino-5-(trifluoromethyl)pyridin-3-yl)imidazo[1,2 b]pyridazin-2-yl)azetidine-3-carboxamide], the IC50 in experiment [1] (read-out: PI3K Alpha IC50) is < 1 µM. The EC50 is < 1 µM in experiment [2] (setting [4]) and < 10 µM in experiment [3] (setting [5]).
On to `CC(=O)Nc1cn2cc(-c3cnc(N)c(Oc4cccc(F)c4)n3)ccc2n1` [Example 65, N-(6-(5-amino-6-(3-fluorophenoxy)pyrazin-2-yl)imidazo[1,2-a]pyridin-2-yl)acetamide], for which the IC50 in experiment [1] (read-out: PI3K Alpha IC50) was < 1 µM. For the same molecule, the 50% effective concentration (EC50) in experiment [2] (setting [4]) and in experiment [3] (setting [5]) was < 1 µM in each case.
In the case of `CC(=O)Nc1cn2cc(-c3cnc(N)c(C(=O)NCCN4CCCC4)n3)ccc2n1` [Example 100, 6-(2-acetamido-imidazo[1,2-a]pyridin-6-yl)-3-amino-N-(2-(pyrrolidin-1-yl)ethyl) pyrazine-2-carboxamide], the IC50 in experiment [1] (read-out: PI3K Alpha IC50) is < 1 µM. The EC50 in experiment [2] (setting [4]) and in experiment [3] (setting [5]) was < 1 µM in each case.
Regarding `CC(=O)Nc1cn2nc(-c3cnc(N)c(-c4ccccc4)c3)ccc2n1` [Example 84, N-(6-(6-amino-5-phenylpyridin-3-yl)imidazo[1,2-b]pyridazin-2-yl)acetamide], the IC50 in experiment [1] (read-out: PI3K Alpha IC50) is < 1 µM. In addition, the EC50 in experiment [2] (setting [4]) and in experiment [3] (setting [5]) was < 1 µM each time.
`CC(=O)Nc1nc2ccc(-c3cnc(N)c(C(F)(F)F)c3)cn2c1C#Cc1ccccc1` [Example 23, N-[6-(6-Amino-5-trifluoromethyl-pyridin-3-yl)-3-phenylethynyl-imidazo[1,2-a]pyridin-2-yl]-acetamide]: the concentration for half-maximal inhibition (IC50) in experiment [1] (read-out: PI3K Alpha IC50) was < 1 µM. Further, the EC50 in experiment [2] (setting [4]) is < 1 µM; in experiment [3] (setting [5]), < 10 µM.
On to `C/C=C/c1c(NC(C)=O)nc2ccc(-c3cnc(N)c(C(F)(F)F)c3)cn12` [Example 193, (E)-N-(6-(6-amino-5-(trifluoromethyl)pyridin-3-yl)-3-(prop-1-enyl)imidazo[1,2-a]pyridin-2-yl)acetamide], for which the IC50 in experiment [1] (read-out: PI3K Alpha IC50) is < 1 µM. The concentration giving a half-maximal response (EC50) in experiment [2] (setting [4]) and in experiment [3] (setting [5]) was < 10 µM throughout.
In the case of `COCCOc1nc(-c2ccc3nc(NC(=O)COC)cn3c2)cnc1N` [Example 196, N-(6-(5-amino-6-(2-methoxyethoxy)pyrazin-2-yl)imidazo[1,2-a]pyridin-2-yl)-2-methoxyacetamide], the IC50 in experiment [1] (read-out: PI3K Alpha IC50) was < 1 µM. Moreover, the concentration for a half-maximal effect (EC50) is < 1 µM in experiment [2] (setting [4]) and < 10 µM in experiment [3] (setting [5]).
Regarding `CC(=O)Nc1cn2nc(-c3cnc(N)c(-c4ccn(C)n4)c3)ccc2n1` [Example 95, N-(6-(6-amino-5-(1-methyl-1H-pyrazol-3-yl)pyridin-3-yl)imidazo[1,2-b]pyridazin-2-yl)acetamide], in experiment [1] (read-out: PI3K Alpha IC50), the half-maximal inhibitory concentration (IC50) is < 1 µM. Further, the half-maximal effective concentration (EC50) in experiment [2] (setting [4]) and in experiment [3] (setting [5]) was < 1 µM in each case.
Consider `CC(=O)Nc1cn2cc(-c3cnc(N)c(-c4cccc(C(F)(F)F)c4)c3)ccc2n1` [Example 88, N-(6-(6-amino-5-(3-(trifluoromethyl)phenyl)pyridin-3-yl)imidazo[1,2-a]pyridin-2-yl)acetamide], for which, in experiment [1] (read-out: PI3K Alpha IC50), the IC50 was < 1 µM. For the same molecule, the 50% effective concentration (EC50) in experiment [2] (setting [4]) and in experiment [3] (setting [5]) was < 1 µM in each case.
In the case of `CC(=O)Nc1cn2cc(-c3cnc(N)nc3)ccc2n1` [Example 4, N-[6-(2-Amino-pyrimidin-5-yl)-imidazo[1,2-a]pyridin-2-yl]-acetamide], in experiment [1] (read-out: PI3K Alpha IC50), the half-inhibitory concentration (IC50) was < 1 µM. The values for the EC50 in experiment [2] (setting [4]) and in experiment [3] (setting [5]) were < 10 µM and < 25 µM, respectively.
